Measured values published in ChEMBL document CHEMBL4130619, “Structure-Based Virtual Screening for the Discovery of Novel Inhibitors of New Delhi Metallo-β-lactamase-1” (ACS Med Chem Lett, 2018).
Converted amounts (≈) assume the structure as drawn.

Assays:
[1] = test system: Bacteria; test: Competitive inhibition of bacterial NDM1 expressed in Escherichia coli JM109 (DE3) at 200 uM pre-incubated for 10 mins before nitrocefin substrate addition by spectrophotometry
[2] = Competitive inhibition of bacterial NDM1 expressed in Escherichia coli JM109 (DE3) pre-incubated for 10 mins before nitrocefin substrate addition by spectrophotometry; parameters: species or system Bacteria
[3] = test system: Escherichia coli; test: Antibacterial activity in Escherichia coli clinical isolates endogenously expressing NDM1 incubated at 37 degC for 18 hrs by spectrophotometry; type: functional
[4] = test system: Escherichia coli; test: Antibacterial activity in Escherichia coli BL21 (DE3) expressing pET-24a-blaNDM-1 incubated at 37 degC for 18 hrs by spectrophotometry; type: functional
[5] = test system: Bacteria; test: (§1) Inhibition of bacterial NDM1 expressed in Escherichia coli BL21 (DE3) expressing pET-24a-blaNDM-1 assessed as potentiation of meropenem-induced antibacterial activity by measuring fractional inhibitory concentration index at 16 ug/ml incubated at 37 degC for 18 hrs by spectrophotometry based checkerboard microdilution assay
[6] = test system: Bacteria; test: as §1, with “cefazolin-induced” for “meropenem-induced”, “combination MIC” for “fractional inhibitory concentration index”, “>256” for “16”
[7] = biological target: Beta-lactamase NDM-1 (Escherichia coli) (UniProt E5KIY2); test: Inhibition of NDM1 in Escherichia coli clinical isolates assessed as potentiation of ampicillin-induced antibacterial activity by measuring fractional inhibitory concentration index at 128 ug/ml incubated at 37 degC for 18 hrs by spectrophotometry based checkerboard microdilution assay
[8] = test system: Bacteria; test: as §1, with “cefotaxime-induced” for “meropenem-induced”, “4” for “16”
[9] = test system: Bacteria; test: as §1, with “0.25” for “16”
[10] = test system: Bacteria; test: (§2) Inhibition of bacterial NDM1 expressed in Escherichia coli BL21 (DE3) expressing pET-24a-blaNDM-1 assessed as potentiation of cefotaxime-induced antibacterial activity by measuring reduction in cefotaxime MIC incubated at 37 degC for 18 hrs by spectrophotometry based checkerboard microdilution assay
[11] = biological target: Beta-lactamase NDM-1 (Escherichia coli) (UniProt E5KIY2); test: Inhibition of NDM1 in Escherichia coli clinical isolates assessed as potentiation of meropenem -induced antibacterial activity by measuring combination MIC at 2 ug/ml incubated at 37 degC for 18 hrs by spectrophotometry based checkerboard microdilution assay
[12] = biological target: Beta-lactamase NDM-1 (Escherichia coli) (UniProt E5KIY2); test: Inhibition of NDM1 in Escherichia coli clinical isolates assessed as potentiation of ampicillin-induced antibacterial activity by measuring combination MIC at 128 ug/ml incubated at 37 degC for 18 hrs by spectrophotometry based checkerboard microdilution assay
[13] = test system: Bacteria; test: as §2, with “combination” for “reduction in cefotaxime”, “MIC at 0.25 ug/ml” for “MIC”
[14] = test system: Bacteria; test: Inhibition of bacterial NDM1 expressed in Escherichia coli BL21 (DE3) expressing pET-24a-blaNDM-1 assessed as potentiation of meropenem-induced antibacterial activity by measuring reduction in meropenem MIC incubated at 37 degC for 18 hrs by spectrophotometry based checkerboard microdilution assay
[15] = biological target: Beta-lactamase NDM-1 (Escherichia coli) (UniProt E5KIY2); test: Inhibition of NDM1 in Escherichia coli clinical isolates assessed as potentiation of cefazolin-induced antibacterial activity by measuring fractional inhibitory concentration index at >256 ug/ml incubated at 37 degC for 18 hrs by spectrophotometry based checkerboard microdilution assay
[16] = test system: Bacteria; test: (§3) Inhibition of bacterial NDM1 expressed in Escherichia coli BL21 (DE3) expressing pET-24a-blaNDM-1 assessed as potentiation of meropenem-induced antibacterial activity by measuring combination MIC at 16 ug/ml incubated at 37 degC for 18 hrs by spectrophotometry based checkerboard microdilution assay
[17] = biological target: Beta-lactamase NDM-1 (Escherichia coli) (UniProt E5KIY2); test: Inhibition of NDM1 in Escherichia coli clinical isolates assessed as potentiation of cefotaxime-induced antibacterial activity by measuring combination MIC at >256 ug/ml incubated at 37 degC for 18 hrs by spectrophotometry based checkerboard microdilution assay
[18] = test system: Bacteria; test: as §1, with “cefazolin-induced” for “meropenem-induced”, “256” for “16”
[19] = test system: Bacteria; test: Inhibition of bacterial NDM1 expressed in Escherichia coli BL21 (DE3) expressing pET-24a-blaNDM-1 assessed as potentiation of cefotaxime-induced antibacterial activity by measuring combination MIC at 4 ug/ml incubated at 37 degC for 18 hrs by spectrophotometry based checkerboard microdilution assay
[20] = biological target: Beta-lactamase NDM-1 (Escherichia coli) (UniProt E5KIY2); test: Inhibition of NDM1 in Escherichia coli clinical isolates assessed as potentiation of cefazolin-induced antibacterial activity by measuring combination MIC at >256 ug/ml incubated at 37 degC for 18 hrs by spectrophotometry based checkerboard microdilution assay
[21] = test system: Bacteria; test: as §1, with “cefotaxime-induced” for “meropenem-induced”, “0.25” for “16”
[22] = test system: Bacteria; test: as §1, with “cefazolin-induced” for “meropenem-induced”, “>256” for “16”
[23] = test system: Bacteria; test: as §1, with “ampicillin-induced” for “meropenem-induced”, “256” for “16”
[24] = test system: Bacteria; test: as §3, with “ampicillin-induced” for “meropenem-induced”, “>256” for “16”
[25] = biological target: Beta-lactamase NDM-1 (Escherichia coli) (UniProt E5KIY2); test: Inhibition of NDM1 in Escherichia coli clinical isolates assessed as potentiation of meropenem-induced antibacterial activity by measuring reduction in meropenem MIC incubated at 37 degC for 18 hrs by spectrophotometry based checkerboard microdilution assay
[26] = test system: Bacteria; test: as §3, with “ampicillin-induced” for “meropenem-induced”, “256” for “16”
[27] = biological target: Beta-lactamase NDM-1 (Escherichia coli) (UniProt E5KIY2); test: Inhibition of NDM1 in Escherichia coli clinical isolates assessed as potentiation of meropenem -induced antibacterial activity by measuring fractional inhibitory concentration index at 32 ug/ml incubated at 37 degC for 18 hrs by spectrophotometry based checkerboard microdilution assay
[28] = test system: Bacteria; test: (§4) Inhibition of bacterial NDM1 expressed in Escherichia coli BL21 (DE3) expressing pET-24a-blaNDM-1 assessed as potentiation of cefazolin-induced antibacterial activity by measuring combination MIC at 256 ug/ml incubated at 37 degC for 18 hrs by spectrophotometry based checkerboard microdilution assay
[29] = test system: Bacteria; test: as §1, with “ampicillin-induced” for “meropenem-induced”, “>256” for “16”
[30] = biological target: Beta-lactamase NDM-1 (Escherichia coli) (UniProt E5KIY2); test: Inhibition of NDM1 in Escherichia coli clinical isolates assessed as potentiation of cefotaxime-induced antibacterial activity by measuring fractional inhibitory concentration index at >256 ug/ml incubated at 37 degC for 18 hrs by spectrophotometry based checkerboard microdilution assay
[31] = biological target: Beta-lactamase NDM-1 (Escherichia coli) (UniProt E5KIY2); test: Inhibition of NDM1 in Escherichia coli clinical isolates assessed as potentiation of meropenem -induced antibacterial activity by measuring combination MIC at 32 ug/ml incubated at 37 degC for 18 hrs by spectrophotometry based checkerboard microdilution assay
[32] = test system: Bacteria; test: as §3, with “0.25” for “16”
[33] = biological target: Beta-lactamase NDM-1 (Escherichia coli) (UniProt E5KIY2); test: Inhibition of NDM1 in Escherichia coli clinical isolates assessed as potentiation of meropenem -induced antibacterial activity by measuring fractional inhibitory concentration index at 2 ug/ml incubated at 37 degC for 18 hrs by spectrophotometry based checkerboard microdilution assay
[34] = test system: Bacteria; test: as §4, with “0.25” for “256”
[35] = test system: Bacteria; test: as §1, with “ampicillin-induced” for “meropenem-induced”, “0.25” for “16”
[36] = test system: Bacteria; test: as §1, with “0.5” for “16”
[37] = test system: Bacteria; test: Inhibition of bacterial NDM1 expressed in Escherichia coli BL21 (DE3) expressing pET-24a-blaNDM-1 assessed as potentiation of meropenem-induced antibacterial activity by measuring combination MIC at 64 ug/ml incubated at 37 degC for 18 hrs by spectrophotometry based checkerboard microdilution assay
[38] = biological target: Beta-lactamase NDM-1 (Escherichia coli) (UniProt E5KIY2); test: Inhibition of NDM1 in Escherichia coli clinical isolates assessed as potentiation of meropenem -induced antibacterial activity by measuring combination MIC at 64 ug/ml incubated at 37 degC for 18 hrs by spectrophotometry based checkerboard microdilution assay
[39] = test system: Bacteria; test: Inhibition of bacterial NDM1 expressed in Escherichia coli BL21 (DE3) expressing pET-24a-blaNDM-1 assessed as potentiation of meropenem-induced antibacterial activity by measuring combination MIC at 0.5 ug/ml incubated at 37 degC for 18 hrs by spectrophotometry based checkerboard microdilution assay
[40] = test system: Bacteria; test: as §1, with “64” for “16”
[41] = test system: Bacteria; test: as §1, with “cefazolin-induced” for “meropenem-induced”, “0.25” for “16”
[42] = test system: Bacteria; test: as §3, with “ampicillin-induced” for “meropenem-induced”, “0.25” for “16”
[43] = biological target: Beta-lactamase NDM-1 (Escherichia coli) (UniProt E5KIY2); test: Inhibition of NDM1 in Escherichia coli clinical isolates assessed as potentiation of meropenem -induced antibacterial activity by measuring fractional inhibitory concentration index at 64 ug/ml incubated at 37 degC for 18 hrs by spectrophotometry based checkerboard microdilution assay

With `O=C(O)CC(Sc1c[nH]c2ccccc12)C(=O)O` (centres undefined) the inhibition [1] was > 50% and the Ki [2] was 68 µM.

With `CC1(C)S[C@@H]2[C@H](NC(=O)[C@H](N)c3ccccc3)C(=O)N2[C@H]1C(=O)O` [AMPICILLIN] the MIC [3] was > 32800 µg/mL and the MIC [4] was 1020 to 2050 µg/mL (≈ 2930 to 5860 µM).

For `O=C(CS(=O)(=O)c1ccccc1)NC1CCCCC1`, the inhibition [1] was > 50% and the Ki [2] was 52 µM.

In the case of `C=CCn1c(S)nnc1-c1ccccc1O`, the fractional inhibitory concentration index (FICI) [5] is reported as < 0.281, the inhibition [1] is reported as > 50% and the MIC [6] is reported as 32 µg/mL. For the same molecule, the fractional inhibitory concentration index (FICI) [7] was < 0.375, the fractional inhibitory concentration index (FICI) [8] was < 0.258 and the fractional inhibitory concentration index (FICI) [9] was < 0.501. It also gave a fold change (FC) [10] of 4, an MIC [11] of 64 µg/mL and an MIC [12] of 16 µg/mL. For the same molecule, the MIC [13] was 4 µg/mL, the fold change (FC) [14] was 16 and the fractional inhibitory concentration index (FICI) [15] was > 1. For the same molecule, the MIC [16] was 0.25 µg/mL, the MIC [17] was 1020 µg/mL and the fractional inhibitory concentration index (FICI) [18] was < 0.625. The MIC [19] was 2 µg/mL, the MIC [20] was 2050 µg/mL and the fractional inhibitory concentration index (FICI) [21] was < 0.505. For the same molecule, the fractional inhibitory concentration index (FICI) [22] was > 1, the fractional inhibitory concentration index (FICI) [23] was < 0.563 and the MIC [24] was 1020 µg/mL. For the same molecule, the fold change (FC) [25] was 8, the MIC [26] was 0.0625 µg/mL and the fractional inhibitory concentration index (FICI) [27] was < 0.313. For the same molecule, the MIC [28] was 1 µg/mL, the fractional inhibitory concentration index (FICI) [29] was > 1 and the fractional inhibitory concentration index (FICI) [30] was > 1. The MIC [31] was 32 µg/mL, the MIC [32] was 0.5 µg/mL and the fractional inhibitory concentration index (FICI) [33] was < 0.504. It also gave a Ki [2] of 0.72 µM.

With `Nc1ncnc2c1nc(S(=O)(=O)O)n2Cc1ccccc1` the inhibition [1] was > 50% and the Ki [2] was 65 µM.

In the case of `Cn1c(SCC(=O)O)nnc1-c1ccc(N)cc1`, the inhibition [1] is reported as > 50% and the Ki [2] is reported as 85 µM.

For `Nc1nnnn1NCc1cccc(Cl)c1Cl`, the inhibition [1] was > 50% and the Ki [2] was 67 µM.

For `Cc1nnc(SCC2=C(C(=O)O)N3C(=O)[C@@H](NC(=O)Cn4cnnn4)[C@H]3SC2)s1` [CEFAZOLIN], the MIC [4] was ≥ 32 µg/mL.

For `O=C(O)CN1C(=O)S/C(=C\c2ccccc2Br)C1=O`, the inhibition [1] was > 50% and the Ki [2] was 76 µM.

For `Sc1nncn1NCc1cccc(Br)c1`, the inhibition [1] was > 50%, the MIC [34] was 32 µg/mL and the fractional inhibitory concentration index (FICI) [35] was < 0.501. For the same molecule, the fractional inhibitory concentration index (FICI) [36] was < 0.501, the MIC [13] was 4 µg/mL and the fold change (FC) [14] was 4. The fractional inhibitory concentration index (FICI) [15] was > 1, the MIC [17] was 1020 µg/mL and the MIC [37] was 0.25 µg/mL. It also gave an MIC [38] of 64 µg/mL, an MIC [39] of 0.5 µg/mL and an MIC [20] of 2050 µg/mL. For the same molecule, the fractional inhibitory concentration index (FICI) [40] was < 0.375, the fractional inhibitory concentration index (FICI) [41] was < 0.501 and the MIC [42] was 1020 µg/mL. For the same molecule, the fractional inhibitory concentration index (FICI) [21] was < 0.501, the fold change (FC) [25] was 4 and the fractional inhibitory concentration index (FICI) [27] was < 0.313. The fractional inhibitory concentration index (FICI) [43] was < 0.501, the fractional inhibitory concentration index (FICI) [30] was > 1 and the MIC [31] was 32 µg/mL. For the same molecule, the Ki [2] was 1 µM.

Molecule `CO/N=C(\C(=O)N[C@@H]1C(=O)N2C(C(=O)O)=C(COC(C)=O)CS[C@H]12)c1csc(N)n1` [CEFOTAXIME] has an MIC [3] of 1020 µg/mL (≈ 2250 µM) and an MIC [4] of 8 µg/mL (≈ 17.6 µM).

For `C[C@@H](O)[C@H]1C(=O)N2C(C(=O)O)=C(S[C@@H]3CN[C@H](C(=O)N(C)C)C3)[C@H](C)[C@H]12` [MEROPENEM], the MIC [3] was 128 µg/mL (≈ 334 µM) and the MIC [4] was 1 µg/mL (≈ 2.61 µM).

In the case of `Cc1ccc(-n2nnnc2CS(=O)(=O)c2ccccc2)cc1`, the inhibition [1] is reported as > 50% and the Ki [2] is reported as 71 µM.
